Literature values as cited in patent US20130136780A1, “CROSSLINKED POLYSACCHARIDE GEL COMPOSITIONS FOR MEDICAL AND COSMETIC APPLICATIONS” (ALLERGAN, INC., priority 2007, published 2013).

Conditions: osteoarthritis patient, intra-articular injection of 40 mg; Selvi et al. 2004

In the case of `CC(C)(C)CC(=O)OCC(=O)[C@@]12OC(C)(C)O[C@@H]1C[C@H]1[C@@H]3CCC4=CC(=O)C=C[C@]4(C)[C@@]3(F)[C@@H](O)C[C@@]12C` [triamcinolone hexacetonide], the “adverse outcome after intra-articular injection (case report)” value is given as “developed acute arthritis induced by the injected triamcinolone crystals”.
